Values of other authors as cited in patent US8648060B2, “Use of 3-alpha-androstanediol in combination with a 5-HT1a agonist, in the treatment of sexual dysfunction” (Emotional Brain B.V., priority 2006, dated 2014).

Conditions: serum concentration; capsule

In the case of `CCCc1nn(C)c2c(=O)[nH]c(-c3cc(S(=O)(=O)N4CCN(C)CC4)ccc3OCC)nc12.O=C(O)CC(O)(CC(=O)O)C(=O)O` [sildenafil, 1-[[3-(6,7-dihydro-1-methyl-7-oxo-3-propyl-1Hpyrazolo[4,3-d]pyrimidin-5-yl)-4-ethoxyphenyl]sulfonyl]-4-methylpiperazine citrate], the Tmax of sildenafil is listed as 30 to 120 min and the T½ is listed as 3.5 h.
